From patent US6403299B1, “DEAH-box proteins” (Aventis Research & Technologies GmbH & Co. KG, priority 1995, dated 2002)
Read-outs that look alike come from different tables or passages of the source.

Key:
Format in all cases: cell-based, mouse
A20.2J cells [1] = experiment: Proliferation test 1 (cell counting, Eosin staining), A20.2J cells
Description: A20.2J is a subline of the mouse B-cell lymphoma A20 (ATCC TIB-208) and described as a fusion line in the ATCC for the cell line LS 102.9 (ATCC HB-97). […] The cells were easy to culture as a nonadherent-growing cell line. 5×10^5 cells were incubated in 5 ml of Iscove medium in 6-well plates (Greiner) for 48 hours at 37° C. and 10% CO2. One well was set up as a positive reference value: for A20.2J: cells in Iscove medium Test substances in various concentrations were pipetted into the cells in the remaining wells. After the incubation time, the cells were resuspended in the well, and 100 μl of cell suspension were taken and diluted in 1% strength Eosin solution (1 g of Eosin yellowish from Riedel de Häen dissolved in 100 ml of sterile isotonic saline solution). The cells were counted in a Neubauer counting chamber and the fraction of dead cells (stained by Eosin) determined. The substance-induced alteration of proliferation was calculated relative to the respective positive control.

A20R cells [2] = experiment: Proliferation test 1 (cell counting, Eosin staining), A20R cells
Description: Every 2nd or 3rd day, the cells were passaged in fresh medium to which the same concentration of A77 1726 was added. After culturing for 5 days, growth of the cells and a low dying-off rate (maximum 30% dead cells) was detectable, so the concentration of A77 1726 was increased stepwise. If the proliferation of the cells stagnated, the concentration of the last passage was used. […] 5×10^5 cells were incubated in 5 ml of Iscove medium in 6-well plates (Greiner) for 48 hours at 37° C. and 10% CO2. One well was set up as a positive reference value: for […]: cells in Iscove medium+100 μM A77 1726 Test substances in various concentrations were pipetted into the cells in the remaining wells. After the incubation time, the cells were resuspended in the well, and 100 μl of cell suspension were taken and diluted in 1% strength Eosin solution (1 g of Eosin yellowish from Riedel de Häen dissolved in 100 ml of sterile isotonic saline solution). The cells were counted in a Neubauer counting chamber and the fraction of dead cells (stained by Eosin) determined. The substance-induced alteration of proliferation was calculated relative to the respective positive control.

A20.2J cells [3] = experiment: Proliferation test 2 (3H-thymidine incorporation), A20.2J cells
Description: (§1) 4×10^3 cells were pipetted into a volume of 100 μl of Iscove medium in 96-well round-bottom microtiter plates (Nunc). Test substances were applied in twice the concentration starting from the desired test concentration and 100 μl of this solution was pipetted into the cells. The plates were incubated for 48 hours at 37° C. and 10% CO2. The proliferation was determined by radiolabeling the DNA of dividing cells. To do this, after the incubation time 25 μl of ^3H-thymidine (10 μCi/ml; specific activity 29 Ci/mmol; Amersham) was added to each well and the mixture was incubated for a further 16 hours. To evaluate the test, the plates were harvested on glass fiber filters (Pharmacia) by means of a cell harvester (Skatron), unincorporated ^3H-thymidine being collected in separate waste flasks, and only cellular, DNA-bound radioactivity being measured. The filters were heat-sealed in plastic bags and after addition of 10 ml of scintillator (Pharmacia) sealed in counting cassettes for measurement. Measurement was carried out in a beta-counter (beta-plate system 1206 from Wallac). As indicated under Test 1, the alteration in proliferation of the test substances was calculated against the respective positive controls.
(§2) Antiproliferative substances known from the literature were tested at different concentrations (as described in proliferation test 2) for their antiproliferative properties on A20R cells and A20.2J.
(§3) The function of MDR proteins as secretory pumps can be inhibited by calcium channel blockers, which leads to an accumulation of the substance in the cell. Calcium channel blockers known from the literature and also MDR-associated substances were therefore added to both cell lines in order to check whether the resistant line overexpressed MDR proteins.
(§4) The same test mixture was chosen in order to check whether A77 1726 is an MDR-transported molecule. Numbers are % inhibition of proliferation.

A20R cells [4] = experiment: Proliferation test 2 (3H-thymidine incorporation), A20R cells
Description: as §1, §2, §3, §4

## C/C(O)=C(\C#N)C(=O)Nc1ccc(C(F)(F)F)cc1 [A77 1726]
A20.2J cells [1]; Mus musculus, A20/2J, proliferation test 1, A77 1726 analogs, read-out: IC50 value of A20.2J
  IC50: 2 to 3 µM
A20.2J cells [1]; Mus musculus, read-out: 50% inhibition of the proliferation of the cells, A20.2J
  IC50: 2 µM
A20R cells [2]; Mus musculus, proliferation test 1, A77 1726 analogs
  IC50: 130 µM
A20.2J cells [3]; A20.2J + 1.6 μM A77 1726, verapamil 0 nM
  % inhibition of proliferation: 16.4%
A20R cells [4]; A20R + 62.5 μM A77 1726, verapamil 0 nM
  % inhibition of proliferation: 10.3%
A20R cells [4]; A20.2J and A20R cells, with verapamil 0-400 nM
  transport by MDR proteins: not transported by MDR proteins

## Cc1c(-c2ccc(-c3ccccc3F)cc2)nc2ccc(F)cc2c1C(=O)[O-].[Na+] [Brequinar Na^+ salt, brequinar]
A20.2J cells [1]; proliferation test 1, brequinar, read-out: IC50 value of A20.2J
  IC50: 0.2 µM
A20R cells [2]
  cross-resistance of A20R cells (growth behavior) compared with A20.2J: cross-resistance
A20R cells [2]; proliferation test 1, brequinar
  IC50: 50 to 75 µM

## N.N.[Cl][Pt][Cl] [Cisplatin]
A20.2J cells [3]; 10 μM
  % inhibition of A20.2J: 44.7%
A20R cells [4]; 10 μM
  % inhibition of A20R: 91.1%

## CN(Cc1cnc2nc(N)nc(N)c2n1)c1ccc(C(=O)N[C@@H](CCC(=O)O)C(=O)O)cc1 [Methotrexate]
A20.2J cells [3]; Mus musculus, A20/2J; 0.15 μM
  inhibition at 0.15 µM: 75.9%
A20R cells [4]; Mus musculus; 0.15 μM
  inhibition at 0.15 µM: 65.2%

## COc1c(C)c2c(c(O)c1C/C=C(\C)CCC(=O)O)C(=O)OC2 [Mycophenolic acid]
A20.2J cells [3]; Mus musculus, A20/2J; 0.15 μM
  inhibition at 0.15 µM: 89.8%
A20R cells [4]; Mus musculus; 0.15 μM
  inhibition at 0.15 µM: 76.8%

## COc1cccc2c1C(=O)c1c(O)c3c(c(O)c1C2=O)C[C@@](O)(C(C)=O)C[C@@H]3O[C@H]1C[C@H](N)[C@H](O)[C@H](C)O1 [daunorubicin]
A20.2J cells [3]; Mus musculus, A20/2J, read-out: % inhibition of proliferation
  inhibition at 0.3 µM: 10.7%
A20R cells [4]; Mus musculus, read-out: % inhibition of proliferation
  inhibition at 0.3 µM: 6.8%

## COc1cccc2c1C(=O)c1c(O)c3c(c(O)c1C2=O)C[C@@](O)(C(=O)CO)C[C@@H]3O[C@H]1C[C@H](N)[C@H](O)[C@H](C)O1 [doxorubicin]
A20.2J cells [3]; Mus musculus, A20/2J; read-out: % inhibition of proliferation
  inhibition at 0.3 µM: 2.7%
A20R cells [4]; Mus musculus; read-out: % inhibition of proliferation
  inhibition at 0.3 µM: 9.1%

## Cc1oncc1C(=O)Nc1ccc(C(F)(F)F)cc1 [leflunomide]
A20.2J cells [1]; murine A20.2J cells
  ED50: 4 μ
A20.2J cells [1]; original cell line A20.2J, read-out: ED50 (the source's name)
  EC50: 4 µM
A20R cells [2]; A20R versus A20.2J
  times higher leflunomide concentrations tolerated by A20R than by A20.2J: 30-40 times
A20R cells [2]; murine A20.2J cells resistant to high levels of leflunomide
  ED50: 130 μ
A20R cells [2]; resistant subline A20R, read-out: ED50 (the source's name)
  EC50: 130 µM

## Cyclosporin A
A20.2J cells [3]; 0.25 μM
  % inhibition of A20.2J: 69.9%
A20R cells [4]; 0.25 μM
  % inhibition of A20R: 77.5%
